Source: patent US12662451B2, “Chemical compounds and uses thereof” (GLAXOSMITHKLINE INTELLECTUAL PROPERTY (NO.4) LIMITED, priority 2023, dated 2026)

Assays:
[1] = target: T1, recombinant full-length WRN protein (1-1432) (Homo sapiens, UniProt Q14191); assay: WRN unwinding activity, fluorogenic 384-well assay (Example A); assay type: biochemical; settings: WRN unwinding activity, Table 2; for IC50: 4 hr, read-out: 4 hr UNW pIC50 (converted)
T1 construct: recombinant full-length WRN protein (1-1432)
T1 sequence (Q14191 whole entry): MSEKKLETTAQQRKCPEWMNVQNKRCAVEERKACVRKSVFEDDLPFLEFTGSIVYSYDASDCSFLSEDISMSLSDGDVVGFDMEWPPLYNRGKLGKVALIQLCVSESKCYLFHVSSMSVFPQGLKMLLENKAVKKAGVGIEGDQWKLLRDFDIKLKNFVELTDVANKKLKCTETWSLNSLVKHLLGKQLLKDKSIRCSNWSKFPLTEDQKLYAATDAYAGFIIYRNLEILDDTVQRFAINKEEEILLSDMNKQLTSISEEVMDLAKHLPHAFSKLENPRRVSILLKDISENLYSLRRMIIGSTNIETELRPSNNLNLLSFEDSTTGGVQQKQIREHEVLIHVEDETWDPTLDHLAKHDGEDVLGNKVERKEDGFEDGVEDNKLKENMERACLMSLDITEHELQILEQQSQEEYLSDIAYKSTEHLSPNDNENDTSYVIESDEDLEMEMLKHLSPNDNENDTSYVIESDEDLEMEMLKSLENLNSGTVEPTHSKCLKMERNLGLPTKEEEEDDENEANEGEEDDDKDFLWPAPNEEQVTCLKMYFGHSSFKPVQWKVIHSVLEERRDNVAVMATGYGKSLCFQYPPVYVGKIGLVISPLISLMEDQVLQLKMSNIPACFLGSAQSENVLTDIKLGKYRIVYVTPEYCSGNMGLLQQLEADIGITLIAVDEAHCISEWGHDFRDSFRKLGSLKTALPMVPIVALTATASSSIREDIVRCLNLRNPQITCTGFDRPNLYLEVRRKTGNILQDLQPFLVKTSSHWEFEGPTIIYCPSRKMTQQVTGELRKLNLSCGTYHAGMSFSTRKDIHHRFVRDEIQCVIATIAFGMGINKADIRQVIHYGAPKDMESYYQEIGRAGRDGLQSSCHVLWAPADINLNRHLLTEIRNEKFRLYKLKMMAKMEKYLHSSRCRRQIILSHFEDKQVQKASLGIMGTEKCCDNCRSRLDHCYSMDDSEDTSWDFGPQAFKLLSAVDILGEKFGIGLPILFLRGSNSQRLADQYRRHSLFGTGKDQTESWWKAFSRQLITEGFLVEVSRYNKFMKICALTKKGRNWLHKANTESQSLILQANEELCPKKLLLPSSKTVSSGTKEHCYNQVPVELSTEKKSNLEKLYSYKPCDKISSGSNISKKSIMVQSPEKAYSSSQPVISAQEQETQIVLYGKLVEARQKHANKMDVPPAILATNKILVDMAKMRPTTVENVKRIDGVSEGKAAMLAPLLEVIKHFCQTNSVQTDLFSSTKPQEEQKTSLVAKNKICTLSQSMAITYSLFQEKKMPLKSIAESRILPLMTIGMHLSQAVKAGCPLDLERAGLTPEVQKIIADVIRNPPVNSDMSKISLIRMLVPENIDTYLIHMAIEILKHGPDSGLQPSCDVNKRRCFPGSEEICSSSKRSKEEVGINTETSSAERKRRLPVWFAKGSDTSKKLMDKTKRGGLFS
Procedure, shortened: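 200 pM enzyme (2× stock) preincubated with compound 4 h at ambient temperature, then 200 μM ATP and 12 nM quenched TAMRA-labelled dsDNA (2× stocks) added for 60 min; EDTA-quenched. Buffer 25 mM Tris pH 8.0, 5 mM NaCl, 2 mM MgCl2. Fluorescence at 525/598 nm; pIC50 from four-parameter fit.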

[2] = system: SW48 human colorectal cancer cells; assay: Calculated free drug potency in SW48 cell assay, corrected with media free fraction (Example C); assay type: cell-based; settings: SW48 pCC50 corrected with measured free fraction in cell assay media
Description: It was observed that the compounds of the present disclosure are bound to cell assay media to various degrees, which would affect the cellular potency analysis in Example B. To measure free drug potency, concentrations used in the cell assays were corrected with the measured free fraction determined in the cell assay media. Compounds were incubated in a rapid equilibrium dialysis (RED) at a nominal concentration of 1 μM, using a dialysis buffer of phosphate-buffered saline (PBS, 100 mM sodium phosphate+150 mM sodium chloride, pH 7.4). The test compound was spiked into the medium. Aliquots were added to the donor wells of a RED plate in triplicate, and blank PBS was added to each receiver well, at volumes recommended by the manufacturer. Plates were incubated with shaking at 200 rpm for 4 hours at 37° C. The resultant samples were analysed by LC-MS/MS using a specific and sensitive method. Results were reported as analyte:internal standard peak area ratios (PARs), and the percent unbound was calculated with the following equation:
[formula] where Cfinal=PAR in the T=240 minute sample; Cinitial=PAR in the T=0 minute sample. Cell culture media unbound percentage and calculated free drug potency of selected compounds along with their measured potency from Example B are shown in Table 3.

[3] = system: SW48 human colorectal cancer cells (MSI-H cancer cells); assay: SW48 cell viability, CellTiter-Glo, 120 hours (Example B); settings: for CC50: Homo sapiens, SW48, 120 h, read-out: SW48 pCC50, SW48 cell viability, 120 hours incubation (converted)
[4] = SW48 cell viability, 120 hours incubation, Table 2
[5] = measured potency from Example B, as repeated in Table 3

Compound | IC50 [1] [nM] | Free Drug SW48 pCC50 [2] | SW48 pCC50 [3, 4] | SW48 pCC50 [3, 5] | 4 hr UNW pIC50 [1] | CC50 ([3]; Table 2) [nM]
Cc1nc2cc(S(=O)(=O)N(C)c3ccc([C@@H]4C[C@@H]5COC[C@@H]5[C@@H](C(=O)Nc5ccc(C(F)(F)F)cc5F)[C@@H]4C(=O)O)cc3)ccc2n1C (single isomer, unassigned) [Example 390] | 6.31 | 6.49 | 5.7 | 5.7 | – | –
Cc1nc2cc(S(=O)(=O)N(C)c3ccc([C@H]4CCC[C@@H](C(=O)Nc5ccc(C(F)(F)F)cc5F)[C@@H]4C(=O)O)cc3)cc(C3CCCN(C)C3)c2n1C (relative stereo) [Example 270, (1R,2R,6S)-2-((2-fluoro-4-(trifluoromethyl)phenyl)carbamoyl)-6-(4-((N,1,2-trimethyl-7-((S*)-1-methylpiperidin-3-yl)-1H-benzo[d]imidazole)-5-sulfonamido)phenyl)cyclohexane-1-carboxylic acid] | – | 7.18 | 6.5 | 6.5 | 9.0 | –
Cc1nc2cc(S(=O)(=O)N(C)c3ccc([C@H]4C[C@@H](N5CCC[C@@H](F)C5)C[C@@H](C(=O)Nc5ccc(C(F)(F)F)cc5F)[C@@H]4C(=O)O)cc3)ccc2n1C (single isomer, unassigned) [Example 347, rel-(1R*,2R*,4S*,6S*)-2-((2-fluoro-4-(trifluoromethyl)phenyl)carbamoyl)-4-((R)-3-fluoropiperidin-1-yl)-6-(4-((N,1,2-trimethyl-1H-benzo[d]imidazole)-5-sulfonamido)phenyl)cyclohexane-1-carboxylic acid] | 10 | 6.17 | 5.2 | 5.2 | – | –
CN(c1ccc([C@H]2CCC[C@@H](C(=O)Nc3ccc(C(F)(F)F)cc3F)[C@@H]2C(=O)O)cc1)S(=O)(=O)c1ccc(-c2ccn(C)n2)cc1 [Example 99, (1R,2R,6S)-2-((2-fluoro-4-(trifluoromethyl)phenyl)carbamoyl)-6-(4-((N-methyl-4-(1-methyl-1H-pyrazol-3-yl)phenyl)sulfonamido)phenyl)cyclohexane-1-carboxylic acid] | – | 7.77 | 6.1 | 6.1 | 8.6 | –
Cc1nc2cc(S(=O)(=O)N(C)c3ccc([C@H]4C[C@@H](N5CCC[C@@H](F)C5)C[C@@H](C(=O)Nc5ccc(C(F)(F)F)cc5F)[C@@H]4C(=O)O)cc3)ccc2n1C (single isomer, unassigned) [Example 376, rel-(1R*,2R*,4R*,6S*)-2-((2-fluoro-4-(trifluoromethyl)phenyl)carbamoyl)-4-((R)-3-fluoropiperidin-1-yl)-6-(4-((N,1,2-trimethyl-1H-benzo[d]imidazole)-5-sulfonamido)phenyl)cyclohexane-1-carboxylic acid] | 2.51 | 7.70 | 7.1 | 7.1 | – | –
O=C(O)[C@@H]1[C@@H](c2ccc(-c3cccc4c3COC4)cc2)CCC[C@H]1C(=O)Nc1ccc(C(F)(F)F)cc1F [Example 15, (1R,2S,6R)-2-(4-(1,3-dihydroisobenzofuran-4-yl)phenyl)-6-((2-fluoro-4-(trifluoromethyl)phenyl)carbamoyl)cyclohexane-1-carboxylic acid] | 158 | – | – | – | – | 20000
[2H]C([2H])([2H])O[C@@H]1C[C@H](C(=O)Nc2ccc(C(F)(F)F)cc2F)[C@@H](C(=O)O)[C@H](c2ccc(N(C)S(=O)(=O)c3ccc4c(c3)nc(C)n4C)cc2)C1 (relative stereo) [Example 149, rel-(1R,2R,4R,6S)-2-((2-fluoro-4-(trifluoromethyl)phenyl)carbamoyl)-4-methoxy-6-(4-((N,1,2-trimethyl-1H-benzo[d]imidazole)-5-sulfonamido)phenyl)cyclohexane-1-carboxylic acid] | 1.58 | – | – | – | – | 200
Cc1nc2cc(S(=O)(=O)N(C)c3ccc([C@H]4C[C@@H](N5CC6(F)CC5C6)C[C@@H](C(=O)Nc5ccc(C(F)(F)F)cc5F)[C@@H]4C(=O)O)cc3)ccc2n1C (relative stereo) [Example 398, rel-(1R,2R,4R,6S)-2-((2-fluoro-4-(trifluoromethyl)phenyl)carbamoyl)-4-(4-fluoro-2-azabicyclo[2.1.1]hexan-2-yl)-6-(4-((N,1,2-trimethyl-1H-benzo[d]imidazole)-5-sulfonamido)phenyl)cyclohexane-1-carboxylic acid] | 100 | – | – | – | – | 25100
Cc1nc2cc(S(=O)(=O)N(C)c3ccc([C@H]4CCC[C@@H](C(=O)N[C@H]5CC[C@H](C6CCC6)CC5)[C@@H]4C(=O)O)cc3)ccc2n1C [Example 188, (1R,2R,6S)-2-(((1r,4R)-4-cyclobutylcyclohexyl)carbamoyl)-6-(4-((N,1,2-trimethyl-1H-benzo[d]imidazole)-5-sulfonamido)phenyl)cyclohexane-1-carboxylic acid] | 2.51 | – | – | – | – | 2510
Cc1nc2cc(S(=O)(=O)N(C)c3ccc([C@@H]4C[C@H](N5CCC[C@@H](F)C5)C[C@H](C(=O)Nc5ccc(C(F)(F)F)cc5F)[C@H]4C(=O)O)cc3)ccc2n1C (stereo in doubt) [Example 345, rel-(1R*,2R*,4R*,6S*)-2-((2-fluoro-4-(trifluoromethyl)phenyl)carbamoyl)-4-((R)-3-fluoropiperidin-1-yl)-6-(4-((N,1,2-trimethyl-1H-benzo[d]imidazole)-5-sulfonamido)phenyl)cyclohexane-1-carboxylic acid] | 398 | – | – | – | – | 12600
Cc1nc2cc(S(=O)(=O)N(C)c3ccc([C@@H]4C[C@H](OC[C@H]5COCCO5)C[C@H](C(=O)Nc5ccc(C(F)(F)F)cc5F)[C@H]4C(=O)O)cc3)ccc2n1C (stereo in doubt) [Example 328, (1R*,2R*,4R*,6S*)-4-(((R)-1,4-dioxan-2-yl)methoxy)-2-((2-fluoro-4-(trifluoromethyl)phenyl)carbamoyl)-6-(4-((N,1,2-trimethyl-1H-benzo[d]imidazole)-5-sulfonamido)phenyl)cyclohexane-1-carboxylic acid] | 126 | – | – | – | – | 15800
Cc1nnc(-c2ccc([C@H]3CCC[C@@H](C(=O)Nc4ccc(C(F)(F)F)cc4F)[C@@H]3C(=O)O)cc2)s1 [Example 41, (1R,2R,6S)-2-((2-fluoro-4-(trifluoromethyl)phenyl)carbamoyl)-6-(4-(5-methyl-1,3,4-thiadiazol-2-yl)phenyl)cyclohexane-1-carboxylic acid] | 5.01 | – | – | – | – | 3980
O=C(O)[C@@H]1[C@@H](c2ccc(-c3ccnnc3)cc2)CCC[C@H]1C(=O)Nc1ccc(C(F)(F)F)cc1F [Example 18, (1R,2R,6S)-2-((2-fluoro-4-(trifluoromethyl)phenyl)carbamoyl)-6-(4-(pyridazin-4-yl)phenyl)cyclohexane-1-carboxylic acid] | 5.01 | – | – | – | – | 12600
O=C(O)[C@@H]1[C@@H](c2ccc(-c3ccoc3)cc2)CCC[C@H]1C(=O)Nc1ccc(C(F)(F)F)cc1F [Example 10, (1R,2R,6S)-2-((2-fluoro-4-(trifluoromethyl)phenyl)carbamoyl)-6-(4-(furan-3-yl)phenyl) cyclohexane-1-carboxylic acid] | 100 | – | – | – | – | 12600
Cc1nc2cc(S(=O)(=O)N(C)c3ccc([C@H]4C[C@@H](N5CCCCC5)C[C@@H](C(=O)Nc5ccc(C(F)(F)F)cc5F)[C@@H]4C(=O)O)cc3)ccc2n1C (relative stereo) [Example 348, rel-(1R,2R,4R,6S)-2-((2-fluoro-4-(trifluoromethyl)phenyl)carbamoyl)-4-(piperidin-1-yl)-6-(4-((N,1,2-trimethyl-1H-benzo[d]imidazole)-5-sulfonamido)phenyl)cyclohexane-1-carboxylic acid] | 1.58 | – | – | – | – | 398
Cc1nc2cc(S(=O)(=O)N(C)c3ccc([C@@H]4C[C@H](N5CCOCC5)C[C@H](C(=O)Nc5ccc(C(F)(F)F)cc5F)[C@H]4C(=O)O)cc3)ccc2n1C (relative stereo) [Example 338, rel-(1R,2R,4R,6S)-2-((2-fluoro-4-(trifluoromethyl)phenyl)carbamoyl)-4-morpholino-6-(4-((N,1,2-trimethyl-1H-benzo[d]imidazole)-5-sulfonamido)phenyl)cyclohexane-1-carboxylic acid] | 79.4 | – | – | – | – | 15800
Cc1nc2cc(S(=O)(=O)N(C)c3ccc([C@H]4C[C@H](N5CCCCC5)C[C@@H](C(=O)Nc5ccc(C(F)(F)F)cc5F)[C@@H]4C(=O)O)cc3)ccc2n1C (relative stereo) [Example 349, rel-(1R,2R,4S,6S)-2-((2-fluoro-4-(trifluoromethyl)phenyl)carbamoyl)-4-(piperidin-1-yl)-6-(4-((N,1,2-trimethyl-1H-benzo[d]imidazole)-5-sulfonamido)phenyl)cyclohexane-1-carboxylic acid] | 251 | – | – | – | – | 12600
